# Patent US8574563B2 (Bristol-Myers Squibb Company, priority 2006, dated 2013)
# Like-named read-outs stand apart in the source and are kept apart here.
# Test system: HCV 1b-377-neo replicon cells
# Assay: HCV replicon assay, HCV 1b-377-neo replicon cells (1b FRET)
# Type: cell-based, Hepatitis C virus genotype 1b
# Conditions: HCV 1b-377-neo replicon cells, HCV 1b genotype, read-out: EC50 range against HCV 1b (Table 2, Range)
# Procedure, shortened: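 Compounds were tested in genotype 1b subgenomic replicon cells carrying a neomycin marker, alongside a matched replicon line with an NS5A Y2065H substitution that confers resistance to a reference NS5A inhibitor.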
Compound,EC50 (Hepatitis C virus),EC50
"CN(C)C(C(=O)N1CCC[C@H]1c1nc(-c2ccc(-c3ccc(-c4cnc([C@@H]5CC6CCCCC6N5C(=O)[C@@H](c5ccccc5)N(C)C)[nH]4)cc3)cc2)c[nH]1)c1ccccc1 (relative stereo) [Example F7, rel-(1R)-2-((2S)-2-(4-(4′-(2-((2S)-1-((2R)-2-(dimethylamino)-2-phenylacetyl)octahydro-1H-indol-2-yl)-1H-imidazol-5-yl)-4-biphenylyl)-1H-imidazol-2-yl)-1-pyrrolidinyl)-N,N-dimethyl-2-oxo-1-phenylethanamine]",0.001 to 0.999 nM,–
"CCC[C@H](NC(=O)OC)C(=O)N1CCC[C@H]1c1ncc(-c2ccc(-c3ccc(-c4cnc([C@@H]5CCCN5C(=O)[C@@H](NC(=O)OC)C(C)C)[nH]4)cc3)cc2)[nH]1 [Example M75, methyl ((1S)-1-(((2S)-2-(5-(4′-(2-((2S)-1-((2S)-2-((methoxycarbonyl)amino)-3-methylbutanoyl)-2-pyrrolidinyl)-1H-imidazol-5-yl)-4-biphenylyl)-1H-imidazol-2-yl)-1-pyrrolidinyl)carbonyl)butyl) carbamate]",–,1 to 99 nM
"CC[C@@H](NC(=O)OC)C(=O)N1CCC[C@H]1c1ncc(-c2ccc(-c3ccc(-c4cnc([C@@H]5CCCN5C(=O)[C@@H](c5ccccc5)N(CC)CC)[nH]4)cc3)cc2)[nH]1 [Example M54, methyl ((1R)-1-(((2S)-2-(5-(4′-(2-((2S)-1-((2R)-2-(diethylamino)-2-phenylacetyl)-2-pyrrolidinyl)-1H-imidazol-5-yl)-4-biphenylyl)-1H-imidazol-2-yl)-1 pyrrolidinyl)carbonyl)propyl) carbamate]",–,1 to 99 nM
"CCN(CC)[C@@H](C(=O)N1CCC[C@H]1c1ncc(-c2ccc(-c3ccc(-c4cnc([C@@H]5CCCN5C(=O)[C@@H](Nc5cccnc5)C(C)C)[nH]4)cc3)cc2)[nH]1)c1ccccc1 [cj-20c, N-((1S)-1-(((2S)-2-(5-(4′-(2-((2S)-1-((2R)-2-(diethylamino)-2-phenylacetyl)-2-pyrrolidinyl)-1H-imidazol-5-yl)-4-biphenylyl)-1H-imidazol-2-yl)-1-pyrrolidinyl)carbonyl)-2-methylpropyl)-3-pyridinamine]",0.001 to 0.999 nM,–
"CCC(C)NCC(=O)N1CCC[C@H]1c1ncc(-c2ccc(-c3ccc(-c4cnc([C@@H]5CCCN5C(=O)[C@@H](NC(=O)OC)C(C)C)[nH]4)cc3)cc2)[nH]1 (stereo partly drawn) [LS24, methyl ((1S)-1-(((2S)-2-(5-(4′-(2-((2S)-1-(N-sec-butylglycyl)-2-pyrrolidinyl)-1H-imidazol-5-yl)-4-biphenylyl)-1H-imidazol-2-yl)-1-pyrrolidinyl)carbonyl)-2-methylpropyl)carbamate]",0.001 to 0.999 nM,–
"COC(=O)N[C@H](C(=O)N1C[C@@H](F)C[C@H]1c1ncc(-c2ccc(-c3ccc(-c4cnc([C@@H]5C[C@H](F)CN5C(=O)[C@@H](NC(=O)OC)C(C)C)[nH]4)cc3)cc2)[nH]1)C(C)C [JG-10, methyl ((1S)-1-(((2S,4S)-4-fluoro-2-(5-(4′-(2-((2S,4S)-4-fluoro-1-((2S)-2-((methoxycarbonyl)amino)-3-methylbutanoyl)-2-pyrrolidinyl)-1H-imidazol-5-yl)-4-biphenylyl)-1H-imidazol-2-yl)-1-pyrrolidinyl)carbonyl)-2-methylpropyl)carbamate]",1 to 99 nM,–
"COC(=O)N[C@@H](Cc1ccncc1)C(=O)N1CCC[C@H]1c1ncc(-c2ccc(-c3ccc(-c4cnc([C@@H]5CCCN5C(=O)[C@@H](NC(=O)OC)[C@@H](C)OC)[nH]4)cc3)cc2)[nH]1 [cj-87, methyl ((1S)-2-((2S)-2-(5-(4′-(2-((2S)-1-((2S,3R)-3-methoxy-2-((methoxycarbonyl)amino)butanoyl)-2-pyrrolidinyl)-1H-imidazol-5-yl)-4-biphenylyl)-1H-imidazol-2-yl)-1-pyrrolidinyl)-2-oxo-1-(4-pyridinylmethyl)ethyl)carbamate]",0.001 to 0.999 nM,–
"CO[C@@H](C(=O)N1CCC[C@H]1c1ncc(-c2ccc(-c3ccc(-c4cnc([C@@H]5CCCN5C(=O)[C@H](OC)c5ccccc5)[nH]4)cc3)cc2)[nH]1)c1ccccc1 [Example 8, 5,5′-(4,4′-biphenyldiyl)bis(2-((2S)-1-((2R)-2-methoxy-2-phenylacetyl)-2-pyrrolidinyl)-1H-imidazole)]",0.001 to 0.999 nM,–
"CC[C@H](NC(=O)OC)C(=O)N1CC2(CC2)C[C@H]1c1nc(-c2ccc(-c3ccc(-c4c[nH]c([C@@H]5CC6(CC6)CN5C(=O)[C@H](CC)NC(=O)OC)n4)cc3)cc2)c[nH]1 [Example M148, dimethyl (4,4′-biphenyldiylbis(1H-imidazole-4,2-diyl(6S)-5-azaspiro[2.4]heptane-6,5-diyl((2S)-1-oxo-1,2-butanediyl)))biscarbamate]",0.001 to 0.999 nM,–
"COC(=O)N[C@@H](C(=O)N1CCC[C@H]1c1ncc(-c2ccc(-c3ccc(-c4cnc([C@@H]5CCCN5C(=O)Cc5cn(C)cn5)[nH]4)cc3)cc2)[nH]1)c1ccccc1 [Example 62, methyl ((1R)-2-((2S)-2-(5-(4′-(2-((2S)-1-((1-methyl-1H-imidazol-4-yl)acetyl)-2-pyrrolidinyl)-1H-imidazol-5-yl)-4-biphenylyl)-1H-imidazol-2-yl)-1-pyrrolidinyl)-2-oxo-1-phenylethyl)carbamate]",0.001 to 0.999 nM,–
COC(=O)N[C@@H](C(=O)N1CCC[C@H]1c1ncc(-c2ccc(-c3ccc(-c4cnc([C@@H]5CCCN5C(=O)[C@H](NC(=O)OC)c5ccccc5)[nH]4)nn3)cc2)[nH]1)c1ccccc1 [Example 152j-10],1 to 99 nM,–
"COC(=O)N[C@@H](C(=O)N[C@@H](C)c1ncc(-c2ccc(-c3ncc(-c4cnc([C@@H]5CCCN5C(=O)[C@@H](c5ccccc5)N5CCCCC5)[nH]4)cn3)cc2)[nH]1)c1ccccc1 [Example 152l-2, methyl ((1R)-2-oxo-1-phenyl-2-(((1S)-1-(4-(4-(5-(2-((2S)-1-((2R)-2-phenyl-2-(1-piperidinyl)acetyl)-2-pyrrolidinyl)-1H-imidazol-5-yl)-2-pyrimidinyl)phenyl)-1H-imidazol-2-yl)ethyl)amino)ethyl)carbamate]",0.001 to 0.999 nM,–
"COC(=O)N[C@@H](C(=O)N1CCC[C@H]1c1ncc(-c2ccc(-c3ccc(-c4cnc([C@@H]5CCCN5C(=O)[C@@](C)(O)c5ccccc5F)[nH]4)cc3)cc2)[nH]1)c1ccccc1 [Example 84-2, methyl ((1R)-2-((2S)-2-(5-(4′-(2-((2S)-1-((2S)-2-(2-fluorophenyl)-2-hydroxypropanoyl)-2-pyrrolidinyl)-1H-imidazol-5-yl)-4-biphenylyl)-1H-imidazol-2-yl)-1-pyrrolidinyl)-2-oxo-1-phenylethyl)carbamate]",0.001 to 0.999 nM,–
"COC(=O)N[C@@H](C(=O)N1CCC[C@H]1c1ncc(-c2ccc(-c3ccc(-c4cnc([C@@H]5CCCN5C(=O)[C@H](C)N(C)C)[nH]4)cc3)cc2)[nH]1)c1ccccc1 [Example 76, methyl ((1R)-2-((2S)-2-(5-(4′-(2-((2S)-1-(N,N-dimethyl-L-alanyl)-2-pyrrolidinyl)-1H-imidazol-5-yl)-4-biphenylyl)-1H-imidazol-2-yl)-1-pyrrolidinyl)-2-oxo-1-phenylethyl)carbamate]",0.001 to 0.999 nM,–
"CC(C)[C@@H](O)C(=O)N1CCC[C@H]1c1ncc(-c2ccc(-c3ccc(-c4cnc([C@@H]5CCCN5C(=O)[C@H](O)C(C)C)[nH]4)cc3)cc2)[nH]1 [Example 16, (2R,2′R)-1,1′-(4,4′-biphenyldiylbis(1H-imidazole-5,2-diyl(2S)-2,1-pyrrolidinediyl))bis(3-methyl-1-oxo-2-butanol)]",1 to 99 nM,–
